Experimental data: patent US20230103631A1, “PEPTIDES AS SELECTIVE GIP RECEPTOR AGONISTS” (Sanofi, priority 2020, published 2023)
*1 amine or outer side, *2 acyl side, *3 side chain or, on linkers, in order; H or OH if unused. Where a SMILES comes first, the peptide text is derived from it. Side-chain parts run from the residue outwards. [ ]: non-standard residue; d: D form. The star is where a group is joined. C20 diacid = O=C(O)CCCCCCCCCCCCCCCCCCC(=O)*; C18 diacid = O=C(O)CCCCCCCCCCCCCCCCC(=O)*; γGlu = O=C(O)[C@H](CCC(=O)[*:2])N[*:1]; NMeY = CN[C@@H](Cc1ccc(O)cc1)C(=O)O; AEEA = NCCOCCOCC(=O)O; Aib = CC(C)(N)C(=O)O; Sar = CNCC(=O)O

Experiments:
[1] = biological target: T1, human GIP receptor (Homo sapiens, UniProt P48546); experiment: cAMP HTRF assay in human adipocytes endogenously expressing the human GIP receptor; format: cell-based; conditions: for EC50: read-out: hGIPR EC50; for Emax: read-out: hGIPR Emax
T1 construct: human adipocytes endogenously expressing the human GIP receptor; host or cells: human preadipocytes (Lonza) differentiated to adipocytes
T1 sequence (P48546 22-466): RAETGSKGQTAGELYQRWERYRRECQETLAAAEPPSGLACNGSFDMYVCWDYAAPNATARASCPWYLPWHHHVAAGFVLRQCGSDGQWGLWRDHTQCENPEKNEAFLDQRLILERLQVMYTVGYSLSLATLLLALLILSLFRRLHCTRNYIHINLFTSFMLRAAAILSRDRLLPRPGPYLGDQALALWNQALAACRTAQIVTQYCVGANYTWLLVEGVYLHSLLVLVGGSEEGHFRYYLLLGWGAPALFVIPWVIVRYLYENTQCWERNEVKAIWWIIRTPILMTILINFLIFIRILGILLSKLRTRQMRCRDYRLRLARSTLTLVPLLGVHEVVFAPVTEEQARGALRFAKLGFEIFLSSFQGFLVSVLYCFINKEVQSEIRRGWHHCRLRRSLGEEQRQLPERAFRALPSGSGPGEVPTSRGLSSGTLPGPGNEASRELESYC
Method: For this, one vial of human preadipocytes (˜10^6 cells; Lonza) was thawed in a T-75 cell culture dish.
After 3 days, the cells were washed with PBS and 1.5 ml Trypsin, incubated for 4 min, then resuspended in medium, centrifugated for 10 min @ 300 rcf RT, resuspended again and distributed to four T-75 cell culture dishes.
After 5 days, the cells were washed with PBS and 1.5 ml Trypsin, incubated for 4 min, then resuspended in medium, centrifugated for 10 min @ 300 rcf RT, resuspended again and sawn in T-75 dishes (2.5×10^6 cells per dish) in 15 ml Differentiation medium each.
After 6 days of differentiation, 5000 cells per well were dispensed on a 96-well plate (#CLS3694 from Corning®, Sigma-Aldrich). For measurement of cAMP generation, 25 μL of test compound was added to each well of the 96-well plate, followed by incubation for 30 min at room temperature.
The cAMP generated following test compound stimulation was determined using a kit from Cisbio Corp. based on HTRF (Homogenous Time Resolved Fluorescence). The cAMP assay was performed according to manufacturer's instructions (Cisbio).
The cAMP content of cells was determined using a kit from Cisbio Corp. based on HTRF (Homogenous Time Resolved Fluorescence).

[2] = Chemical stability assessment (relative purity loss by UHPLC-UV); format: physicochemical; conditions: Chemical stability buffer system A: 20 mM phosphate buffer pH 7.4
Method: Purity of a peptide batch was determined through UHPLC/MS prior to chemical stability measurement. The target concentration was […] pure compound. Solutions from solid samples were prepared in the following buffer systems with a concentration of ˜300 μM compound based on the previously determined % purity:
Chemical stability buffer system A) 20 mM phosphate buffer pH 7.4,
Chemical stability buffer system B) 8 mM phosphate buffer pH 7.4, 14 mg/ml propylene glycol, 5.5 mg/ml phenol
Chemical stability buffer system C) 100 mM phosphate buffer pH 7.4, 2.7 mg/ml m-cresol
Prepared solutions were filtered through […] pore size and filled into sterilized glass containers under laminar flow conditions.
Glass containers were stored for 28 days at 5 and 40° C. After this time, the samples were centrifuged for 15 min at 2500 RCF. Then 1.5 μl of the undiluted supernatant were analysed with UHPLC-UV.
The chemical stability was rated through the relative loss of purity calculated by the equation:
[(purity after 28 days at 5° C.)−(purity after 28 days at 40° C.)]/(purity after 28 days at 5° C.)]*100%
The purity is calculated as
[(peak area peptide)/(total peak area)]*100%
The analytical methods used were Analytical UHPLC Method B or C.
Peptide samples were prepared in Chemical stability buffer system A or B and stability was assessed as described in Methods.

[3] = physchem; format: physicochemical; conditions: for Soluble amount: 24 h, pH 7.4; for solubility at 24 h: pH 7.4, Soluble amount
Outline: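 Peptide at 10 mg/ml (purity-corrected) in 100 mM phosphate pH 7.4, alone or with 2.7 mg/ml m-cresol; 1 h gentle agitation, then 24 h at 5 °C. Supernatant after 15 min at 2500 RCF quantified by UHPLC-UV against reference peptide, adjusted for extinction coefficients.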

[4] = biological target: human GLP-1 receptor (hGLP-1R) (Homo sapiens, UniProt P43220); experiment: cAMP HTRF assay, HEK-293 cell line over-expressing human GLP-1 receptor; format: cell-based; conditions: HEK-293, cAMP, 0% HSA
Outline: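 Thawed HEK-293 cells over-expressing human GLP-1R (5000 cells/well) in HBSS/20 mM HEPES buffer, with 0.1% HSA where stated, incubated with compound for 30 min at room temperature. Generated cAMP quantified by HTRF.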

Chain of human GLP-1 receptor (hGLP-1R) (P43220 24-463): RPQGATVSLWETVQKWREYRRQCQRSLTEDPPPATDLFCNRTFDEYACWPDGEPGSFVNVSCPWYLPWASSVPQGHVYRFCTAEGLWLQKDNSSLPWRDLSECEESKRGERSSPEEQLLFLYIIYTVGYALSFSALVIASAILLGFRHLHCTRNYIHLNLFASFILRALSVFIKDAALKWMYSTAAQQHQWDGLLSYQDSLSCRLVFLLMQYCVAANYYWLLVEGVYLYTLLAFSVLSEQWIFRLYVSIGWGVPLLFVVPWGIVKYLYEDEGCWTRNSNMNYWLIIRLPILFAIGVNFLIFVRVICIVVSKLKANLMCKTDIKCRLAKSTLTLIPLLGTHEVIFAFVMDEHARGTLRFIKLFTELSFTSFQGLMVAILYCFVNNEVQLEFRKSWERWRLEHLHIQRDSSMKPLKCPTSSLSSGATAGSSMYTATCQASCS

Compound	EC50 [1] [nM]	Emax [1] [%]	Relative purity loss over 28 days at 40° C. [2] [%]	Soluble amount [3] [mg/mL]	solubility at 24 h [3] [mg/mL]	EC50 [4] [nM]
CC[C@H](C)[C@H](NC(=O)[C@H](CCCNC(=N)N)NC(=O)[C@H](CC(=O)O)NC(=O)[C@H](CCCCNC(=O)CN(C)C(=O)CN(C)C(=O)CN(C)C(=O)CC[C@H](NC(=O)CCCCCCCCCCCCCCCCC(=O)O)C(=O)O)NC(=O)C(C)(C)NC(=O)[C@@H](NC(=O)[C@H](CO)NC(=O)[C@H](CC(C)C)NC(=O)[C@H](CC(=O)O)NC(=O)[C@H](CO)NC(=O)[C@@H](NC(=O)[C@H](Cc1ccccc1)NC(=O)[C@@H](NC(=O)CNC(=O)[C@H](CCC(=O)O)NC(=O)C(C)(C)NC(=O)[C@@H](N)Cc1ccc(O)cc1)[C@@H](C)O)[C@@H](C)CC)[C@@H](C)CC)C(=O)N[C@@H](Cc1c[nH]cn1)C(=O)N[C@@H](CCC(N)=O)C(=O)NC(C)(C)C(=O)N[C@@H](CCC(=O)O)C(=O)N[C@@H](Cc1ccccc1)C(=O)N[C@H](C(=O)N[C@@H](CCC(=O)O)C(=O)N[C@@H](Cc1c[nH]c2ccccc12)C(=O)N[C@@H](CC(C)C)C(=O)N[C@@H](CC(C)C)C(=O)N[C@@H](C)C(=O)N[C@@H](CCC(N)=O)C(=O)NCC(=O)N1CCC[C@H]1C(=O)N[C@@H](CO)C(=O)N[C@@H](CO)C(=O)NCC(=O)N[C@@H](C)C(=O)N1CCC[C@H]1C(=O)N1CCC[C@H]1C(=O)N1CCC[C@H]1C(=O)N[C@@H](CO)C(N)=O)[C@@H](C)CC [SEQ ID NO: 6, H2N-Y-Aib-E-G-T-F-I-S-D-I-S-I-Aib-K[{N-MeGly}3-gGlu-C18OH]-D-R-I-H-Q-Aib-E-F-I-E-W-I-L-A-Q-G-P-S-S-G-A-P-P-P-S-NH2] (H-Y[Aib]EGTFISDLSI[Aib]K([Sar-Sar-Sar-γGlu-C18 diacid])DRIHQ[Aib]EFIEWLLAQGPSSGAPPPS-NH2)	0.3	112	5.4	>8.9	> 10.8	> 10
CC[C@H](C)[C@H](NC(=O)[C@H](CCCNC(=N)N)NC(=O)[C@H](CC(=O)O)NC(=O)[C@H](CCCCNC(=O)COCCOCCNC(=O)COCCOCCNC(=O)CC[C@H](NC(=O)CCCCCCCCCCCCCCCCCCC(=O)O)C(=O)O)NC(=O)C(C)(C)NC(=O)[C@@H](NC(=O)[C@H](CO)NC(=O)[C@H](CC(C)C)NC(=O)[C@H](CC(=O)O)NC(=O)[C@H](CO)NC(=O)[C@@H](NC(=O)[C@H](Cc1ccccc1)NC(=O)[C@@H](NC(=O)CNC(=O)[C@H](CCC(=O)O)NC(=O)C(C)(C)NC(=O)[C@@H](N)Cc1ccc(O)cc1)[C@@H](C)O)[C@@H](C)CC)[C@@H](C)CC)C(=O)N[C@@H](Cc1c[nH]cn1)C(=O)N[C@@H](CCC(N)=O)C(=O)NC(C)(C)C(=O)N[C@@H](CCC(=O)O)C(=O)N[C@@H](Cc1ccccc1)C(=O)N[C@H](C(=O)N[C@@H](CCC(=O)O)C(=O)N[C@@H](Cc1c[nH]c2ccccc12)C(=O)N[C@@H](CC(C)C)C(=O)N[C@@H](CC(C)C)C(=O)N[C@@H](C)C(=O)N[C@@H](CCC(N)=O)C(=O)NCC(=O)N1CCC[C@H]1C(=O)N[C@@H](CO)C(=O)N[C@@H](CO)C(=O)NCC(=O)N[C@@H](C)C(=O)N1CCC[C@H]1C(=O)N1CCC[C@H]1C(=O)N1CCC[C@H]1C(=O)N[C@@H](CO)C(N)=O)[C@@H](C)CC [SEQ ID NO: 7, H2N-Y-Aib-E-G-T-F-I-S-D-I-S-I-Aib-K[{AEEA}2-gGlu-C20OH]-D-R-I-H-Q-Aib-E-F-I-E-W-I-L-A-Q-G-P-S-S-G-A-P-P-P-S-NH2] (H-Y[Aib]EGTFISDLSI[Aib]K([AEEA-AEEA-γGlu-C20 diacid])DRIHQ[Aib]EFIEWLLAQGPSSGAPPPS-NH2)	0.3	121	4.5	>5.9	> 6.9	> 10
CC[C@H](C)[C@H](NC(=O)[C@H](CCCNC(=N)N)NC(=O)[C@H](CC(=O)O)NC(=O)[C@H](CCCCNC(=O)COCCOCCNC(=O)COCCOCCNC(=O)CC[C@H](NC(=O)CCCCCCCCCCCCCCCCC(=O)O)C(=O)O)NC(=O)C(C)(C)NC(=O)[C@@H](NC(=O)[C@H](CO)NC(=O)[C@H](CC(C)C)NC(=O)[C@H](CC(=O)O)NC(=O)[C@H](CO)NC(=O)[C@@H](NC(=O)[C@H](Cc1ccccc1)NC(=O)[C@@H](NC(=O)CNC(=O)[C@H](CCC(=O)O)NC(=O)C(C)(C)NC(=O)[C@H](Cc1ccc(O)cc1)NC)[C@@H](C)O)[C@@H](C)CC)[C@@H](C)CC)C(=O)N[C@@H](Cc1c[nH]cn1)C(=O)N[C@@H](CCC(N)=O)C(=O)NC(C)(C)C(=O)N[C@@H](CCC(=O)O)C(=O)N[C@@H](Cc1ccccc1)C(=O)N[C@H](C(=O)N[C@@H](CCC(=O)O)C(=O)N[C@@H](Cc1c[nH]c2ccccc12)C(=O)N[C@@H](CC(C)C)C(=O)N[C@@H](CC(C)C)C(=O)N[C@@H](C)C(=O)N[C@@H](CCC(N)=O)C(=O)NCC(=O)N1CCC[C@H]1C(=O)N[C@@H](CO)C(=O)N[C@@H](CO)C(=O)NCC(=O)N[C@@H](C)C(=O)N1CCC[C@H]1C(=O)N1CCC[C@H]1C(=O)N1CCC[C@H]1C(=O)N[C@@H](CO)C(N)=O)[C@@H](C)CC [SEQ ID NO: 8, MeHN-Y-Aib-E-G-T-F-I-S-D-I-S-I-Aib-K[{AEEA}2-gGlu-C180H]-D-R-I-H-Q-Aib-E-F--E-W-I-L-A-Q-G-P-S-S-G-A-P-P-P-S-NH2] (H-[NMeY][Aib]EGTFISDLSI[Aib]K([AEEA-AEEA-γGlu-C18 diacid])DRIHQ[Aib]EFIEWLLAQGPSSGAPPPS-NH2)	0.5	116	4.7	>6.4	> 7.5	> 10
CC[C@H](C)[C@H](NC(=O)[C@H](Cc1ccccc1)NC(=O)[C@H](CCC(=O)O)NC(=O)[C@H](CCC(=O)O)NC(=O)[C@H](CCC(N)=O)NC(=O)[C@H](Cc1c[nH]cn1)NC(=O)[C@@H](NC(=O)[C@H](CCCNC(=N)N)NC(=O)[C@H](CC(=O)O)NC(=O)[C@H](CCCCNC(=O)COCCOCCNC(=O)COCCOCCNC(=O)CC[C@H](NC(=O)CCCCCCCCCCCCCCCCCCC(=O)O)C(=O)O)NC(=O)C(C)(C)NC(=O)[C@@H](NC(=O)[C@H](CO)NC(=O)[C@H](CC(C)C)NC(=O)[C@H](CC(=O)O)NC(=O)[C@H](CO)NC(=O)[C@@H](NC(=O)[C@H](Cc1ccccc1)NC(=O)[C@@H](NC(=O)CNC(=O)[C@H](CCC(=O)O)NC(=O)C(C)(C)NC(=O)[C@@H](N)Cc1ccc(O)cc1)[C@@H](C)O)[C@@H](C)CC)[C@@H](C)CC)[C@@H](C)CC)C(=O)N[C@@H](CCC(=O)O)C(=O)N[C@@H](Cc1c[nH]c2ccccc12)C(=O)N[C@@H](CC(C)C)C(=O)N[C@@H](CC(C)C)C(=O)N[C@@H](C)C(=O)N[C@@H](CCC(N)=O)C(=O)NCC(=O)N1CCC[C@H]1C(=O)N[C@@H](CO)C(=O)N[C@@H](CO)C(=O)NCC(=O)N[C@@H](C)C(=O)N1CCC[C@H]1C(=O)N1CCC[C@H]1C(=O)N1CCC[C@H]1C(=O)N[C@@H](CO)C(N)=O [SEQ ID NO: 10, H2N-Y-Aib-E-G-T-F-I-S-D-I-S-I-Aib-K[{AEEA}2-gGlu-C20OH]-DRIHQEEFIEWILAQGPSSGAPPPS-NH2] (H-Y[Aib]EGTFISDLSI[Aib]K([AEEA-AEEA-γGlu-C20 diacid])DRIHQEEFIEWLLAQGPSSGAPPPS-NH2)		127	3.3	>8.1	> 8	> 10
